{
  "source": "patent US20230132823A1",
  "about": "“BI-FUNCTIONAL COMPOUNDS AND METHODS FOR TARGETED UBIQUITINATION OF ANDROGEN RECEPTOR” (MONTELINO THERAPEUTICS, INC., priority 2020, published 2023)",
  "key": {"[1]": {"molecular_target": "T1, AR-FL (Homo sapiens, UniProt P10275, DUP590-628/H875Y)", "T1 sequence (P10275 with tags, fused parts or gaps DUP590-628/H875Y)": "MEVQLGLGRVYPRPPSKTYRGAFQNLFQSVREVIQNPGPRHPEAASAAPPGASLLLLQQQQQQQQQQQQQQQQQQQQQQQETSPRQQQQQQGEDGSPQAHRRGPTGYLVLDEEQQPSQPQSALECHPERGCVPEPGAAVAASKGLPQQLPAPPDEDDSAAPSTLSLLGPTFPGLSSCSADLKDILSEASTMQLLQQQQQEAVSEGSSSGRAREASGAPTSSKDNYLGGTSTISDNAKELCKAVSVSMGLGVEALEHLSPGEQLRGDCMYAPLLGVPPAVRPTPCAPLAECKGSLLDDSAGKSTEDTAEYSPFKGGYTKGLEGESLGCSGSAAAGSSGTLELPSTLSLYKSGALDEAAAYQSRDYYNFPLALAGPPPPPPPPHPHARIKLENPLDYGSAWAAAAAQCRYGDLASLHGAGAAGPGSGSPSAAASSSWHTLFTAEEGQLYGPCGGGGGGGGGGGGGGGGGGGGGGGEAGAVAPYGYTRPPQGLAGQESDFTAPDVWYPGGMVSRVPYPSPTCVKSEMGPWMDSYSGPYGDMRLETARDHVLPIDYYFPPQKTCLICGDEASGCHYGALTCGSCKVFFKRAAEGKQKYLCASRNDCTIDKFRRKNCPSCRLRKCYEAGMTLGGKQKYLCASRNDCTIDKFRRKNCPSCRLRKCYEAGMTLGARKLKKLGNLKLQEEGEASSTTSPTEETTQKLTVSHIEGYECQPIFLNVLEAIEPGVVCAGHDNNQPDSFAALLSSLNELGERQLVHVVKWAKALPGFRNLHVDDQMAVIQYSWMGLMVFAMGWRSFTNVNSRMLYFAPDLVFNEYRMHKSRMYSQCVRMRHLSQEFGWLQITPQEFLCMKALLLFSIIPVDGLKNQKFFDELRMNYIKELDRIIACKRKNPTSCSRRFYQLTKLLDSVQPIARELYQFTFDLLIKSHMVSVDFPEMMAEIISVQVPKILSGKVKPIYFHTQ", "assay": "Immunoblot analysis of AR-FL protein in CaP cells (Experimental Example 3)", "format": "cell-based", "parameters": "decreased AR-V7 and AR-FL protein expression levels in 22Rv1 cells; endogenous in cells; host or cells: 22Rv1 (also VCaP, LNCaP and SAT-resistant sublines)", "method": "(§1) Cell Culture. Human CaP cell lines, LNCaP, 22Rv1, VCaP, PC3, and DU145 are obtained from the American Type Culture Collection (ATCC) and maintained in the standard culture media: RPMI-1640 supplemented with 10% fetal bovine serum (FBS). LNCaP, 22Rv1, and VCaP are androgen-responsive cell lines, while PC3 and DU145 are not. To establish SAT resistant CaP cell lines, LNCaP, 22Rv1, and VCaP are treated continuously with 10-50 μM abiraterone, apalutamide, darolutamide, or enzalutamide. After 3-6 months, stable cell lines are established and designated as LNCaP-Abi^R, LNCaP-Apa^R, LNCaP-Daro^R, LNCaP-Enz^R, VCaP-Abi^R, VCaP-Apa^R, VCaP-Daro^R, VCaP-Enz^R, 22Rv1-Abi^R, 22Rv1-Apa^R, 22Rv1-Daro^R and 22Rv1-Enz^R. Unless otherwise specified, the standard culture media for these SAT-resistant cell lines included 10 μM of their respective SAT. For the proteasome inhibitor study, the inhibitors MG132 and Epoxomicin are used. The E3 ligase inhibitors Heclin, Nutlin 3a, Thalidomide, and VH298 are used. Cell lines obtained from ATCC are confirmed by checking their morphology using optical microscopy, establishing baselines for cell proliferation, verifying species of origin using isoenzymology, and characterizing the cell's DNA fingerprint using short tandem repeat (STR) profiling. Mycoplasma contamination is also assessed using a PCR based detection system.\n(§2) Immunoblot Analysis. CaP cells are collected and lysed with the lysis buffer (20 mM Tris-HCl (pH 7.5), 150 mM NaCl, 1 mM Na2EDTA, 1 mM EGTA, 1% Triton, 2.5 mM sodium pyrophosphate, 1 mM beta-glycerophosphate, 1 mM Na3VO4, and 1 μg/ml leupeptin) containing 1 mM phenylmethylsulfonyl fluoride (PMSF). Cell lysates are then centrifuged and protein in the supernatant is quantified. After separating 25-50 μg of protein using SDS-PAGE, samples are incubated with AR-V7, GR, PR, ERα, AR-FL, ubiquitin, or β-actin antibodies. For AR-V7, AR-FL, PR, GR, and ERα immunoblots, primary antibody is diluted 1:1000 in 5% skim milk. For the β-actin immunoblot, 1:10000 diluted primary antibody is used. All membranes are incubated overnight at 4° C. Following the incubation with appropriate secondary antibody, immunoblots are analyzed using SuperSignal West Femto Maximum Sensitivity Substrate (ThermoFisher)."}, "[2]": {"molecular_target": "T2, AR-V7 (Homo sapiens, UniProt P10275)", "T2 sequence (P10275 1-644 isoform P10275-3)": "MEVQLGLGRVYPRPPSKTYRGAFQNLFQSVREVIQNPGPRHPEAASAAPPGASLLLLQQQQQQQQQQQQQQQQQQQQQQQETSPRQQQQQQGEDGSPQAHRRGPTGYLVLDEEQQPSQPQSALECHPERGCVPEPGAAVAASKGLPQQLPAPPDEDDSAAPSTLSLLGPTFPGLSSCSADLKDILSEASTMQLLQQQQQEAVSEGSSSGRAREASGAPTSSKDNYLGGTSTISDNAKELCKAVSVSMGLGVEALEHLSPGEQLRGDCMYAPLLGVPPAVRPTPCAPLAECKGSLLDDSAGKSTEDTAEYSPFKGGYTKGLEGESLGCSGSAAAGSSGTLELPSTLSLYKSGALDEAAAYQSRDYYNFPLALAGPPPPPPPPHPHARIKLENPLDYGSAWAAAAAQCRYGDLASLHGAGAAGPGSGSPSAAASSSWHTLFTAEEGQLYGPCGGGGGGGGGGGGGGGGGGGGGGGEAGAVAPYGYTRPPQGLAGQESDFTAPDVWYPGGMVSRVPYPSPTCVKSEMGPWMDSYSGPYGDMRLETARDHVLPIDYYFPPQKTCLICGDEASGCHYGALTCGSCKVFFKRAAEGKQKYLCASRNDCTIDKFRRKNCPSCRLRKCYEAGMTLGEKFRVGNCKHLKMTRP", "assay": "Immunoblot analysis of AR-V7 protein in CaP cells (Experimental Example 3)", "format": "cell-based", "parameters": "endogenous in cells; host or cells: 22Rv1 (also VCaP, LNCaP and SAT-resistant sublines)", "method": "as §1, §2"}, "[3]": {"details": "22Rv1 cells, 24 hours, 0, 0.01, 0.1, 1 and 10 μM tested"}},
  "note": "Like-named read-outs stand apart in the source and are kept apart here. Where a SMILES comes first, the peptide text is derived from it. [ ]: non-standard residue; d: D form. The star is where a group is joined. ξ: configuration not given here. X1 = O=C(COc1c(-c2csc(N3CCOCC3)n2)ccc(F)c1F)NCCCCCCN*; Dip = N[C@H](C(=O)O)C(c1ccccc1)c1ccccc1; Chg = N[C@H](C(=O)O)C1CCCCC1; NMeA = CN[C@@H](C)C(=O)O; ξP = O=C(O)C1CCCN1",
  "data": [
    {"smiles": "Cc1ncsc1-c1ccc([C@H](C)NC(=O)[C@@H]2C[C@@H](O)CN2C(=O)[C@@H](NC(=O)CCCCNC(=O)COc2c(-c3csc(N4CCOCC4)n3)ccc(F)c2F)C(C)(C)C)cc1", "note": "[Example 16, (2S,4R)-1-((S)-2-(5-(2-(2,3-difluoro-6-(2-morpholinothiazol-4-yl)phenoxy)acetamido)pentanamido)-3,3-dimethylbutanoyl)-4-hydroxy-N-((S)-1-(4-(4-methylthiazol-5-yl)phenyl)ethyl)pyrrolidine-2-carboxamide]", "values": [
      {"measurement": "DC50", "setting": "[1]; 22Rv1, 24 hours, immunoblot, read-out: DC50, concentration at which 50% of AR-FL degraded in 24 hours", "value": 2000, "unit": "nM"},
      {"measurement": "concentration from which AR-FL protein expression is decreased (immunoblot)", "setting": "[1]; [3]", "value": 1, "unit": "µM"},
      {"measurement": "AR-FL protein expression level in parental and SAT-resistant 22Rv1, VCaP and LNCaP cells", "setting": "[1]; immunoblot", "value": "decreases the protein expression levels"},
      {"measurement": "AR-V7 degradation after pretreatment with proteasome inhibitors", "setting": "[2]; 22Rv1, 2 hours MG-132 (5 μM) and epoxomicin (1 μM), then compound at 1 μM", "value": "completely blocked"},
      {"measurement": "DC50", "setting": "[2]; 22Rv1, 24 hours, immunoblot, read-out: DC50, concentration at which 50% of AR-V7 degraded in 24 hours", "value": 370, "unit": "nM"},
      {"measurement": "AR-V7 degradation after pretreatment with E3 ubiquitin ligase inhibitors", "setting": "[2]; 22Rv1, two hours VH 298 20 μM, heclin 10 μM, nutlin 3a 0.1 μM or thalidomide 10 μM, then compound at 1 μM", "value": "only VH298 pretreatment inhibits AR-V7 degradation"},
      {"measurement": "concentration from which AR-V7 protein expression is decreased (immunoblot)", "setting": "[2]; [3]", "value": 0.1, "unit": "µM"},
      {"measurement": "AR-V7 protein expression level in parental and SAT-resistant 22Rv1, VCaP and LNCaP cells", "setting": "[2]; immunoblot, effect on AR-V7 greater than on AR-FL", "value": "decreases the protein expression levels"}
    ]},
    {"smiles": "CN[C@@H](C)C(=O)N[C@H](C(=O)N1CCCC1C(=O)N[C@H](C(=O)NCCCCCCNC(=O)COc1c(-c2csc(N3CCOCC3)n2)ccc(F)c1F)C(c1ccccc1)c1ccccc1)C1CCCCC1", "note": "(stereo partly drawn) [Example 26, (S)-1-((S)-2-cyclohexyl-2-((S)-2-(methylamino)propanamido)acctyl)-N-((S)-1-((6-(2-(2,3-difluoro-6-(2-morpholinothiazol-4-yl)phenoxy)acetamido)hexyl)amino)-1-oxo-3,3-diphenylpropan-2-yl)pyrrolidine-2-carboxamide] (H-[NMeA][Chg][ξP][Dip]-X1)", "values": [
      {"measurement": "DC50", "setting": "[1]; 24 hours, immunoblot, read-out: DC50, concentration at which 50% of AR-FL is degraded in 24 hours", "value": "< 500", "unit": "nM"},
      {"measurement": "DC50", "setting": "[2]; 24 hours, immunoblot, read-out: DC50, concentration at which 50% of AR-V7 is degraded in 24 hours", "value": "< 50", "unit": "nM"}
    ]}
  ]
}
